From US20090137572A1, “2-substituted-4-heteroaryl-pyrimidines useful for the treatment of proliferative disorders” (priority 2004, published 2009) come the findings set out here.

The structures appear in SMILES notation.

One data set deals with T1, Aurora A kinase (Homo sapiens, UniProt O14965).
T1 construct: purchased
T1 sequence (O14965 1-403): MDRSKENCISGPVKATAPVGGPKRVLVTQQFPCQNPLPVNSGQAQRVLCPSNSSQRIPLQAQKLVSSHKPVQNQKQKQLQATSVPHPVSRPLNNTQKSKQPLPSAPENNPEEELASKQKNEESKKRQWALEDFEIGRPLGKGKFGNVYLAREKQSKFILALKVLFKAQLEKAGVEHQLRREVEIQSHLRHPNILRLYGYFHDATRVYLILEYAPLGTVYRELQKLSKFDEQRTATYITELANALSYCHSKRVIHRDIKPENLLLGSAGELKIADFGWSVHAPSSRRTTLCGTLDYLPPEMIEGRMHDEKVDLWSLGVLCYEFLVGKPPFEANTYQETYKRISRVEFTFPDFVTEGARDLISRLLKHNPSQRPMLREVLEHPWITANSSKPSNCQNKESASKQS
The data set can be described thus: Aurora-A (human) kinase assay (Kemptide substrate). In kind it is biochemical. Particulars: pIC50 is -log(IC50, M); 15 μM ATP; read-out: Kinase Inhibition pIC50 Aurora A kinase (converted). A digest of the protocol: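 Kemptide (LRRASLG, 200 μM) phosphorylation by 5-10 ng commercial aurora-A measured as [γ-33P] incorporation at 15 μM ATP with 10 mM Mg acetate, pH 7.0 MOPS buffer. Reaction ran 40 min at room temperature; acid-stopped, captured on P81 filters, scintillation read.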

Another data set deals with CDK7/cyclin H (Homo sapiens, UniProt P50613). Kind of data set: CDK 7 assay (CTD peptide substrate). In kind it is biochemical. The settings on record: read-out: Kinase Inhibition pIC50 CDK7-cyclin H (converted). As to the method:
Kinase assays. The compounds of the invention above were investigated for their ability to inhibit the enzymatic activity of various protein kinases (Table 2). This was achieved by measurement of incorporation of radioactive phosphate from ATP into appropriate polypeptide substrates. Recombinant protein kinases and kinase complexes were produced or obtained commercially. Assays were performed using 96-well plates and appropriate assay buffers (typically 25 mM β-glycerophosphate, 20 mM MOPS, 5 mM EGTA, 1 mM DTT, 1 mM […], pH 7.4), into which were added 2-4 μg of active enzyme with appropriate substrates. The reactions were initiated by addition of Mg/ATP mix (15 mM MgCl2+100 μM ATP with 30-50 kBq per well of [γ-^32P]-ATP) and mixtures incubated as required at 30° C. Reactions were stopped on ice, followed by filtration through p81 filterplates or GF/C filterplates (Whatman Polyfiltronics, Kent, UK). After washing 3 times with 75 mM aq orthophosphoric acid, plates were dried, scintillant added and incorporated radioactivity measured in a scintillation counter (TopCount, Packard Instruments, Pangbourne, Berks, UK). Compounds for kinase assay were made up as 10 mM stocks in DMSO and diluted into 10% DMSO in assay buffer.
CDK 7 and 9 assays. CTD peptide substrate (biotinyl-Abx-(Tyr-Ser-Pro-Thr-Ser-Pro-Ser)4-NH2; 1-2 mg/mL) and recombinant human CDK7/cyclin H, CDK9/cyclin T1, or CDK9/cyclin K (0.5-2 μg) were incubated for 45 min at 30° C. in the presence of varying amounts of test compound in 20 mM MOPS pH 7.2, 25 mM β-glycerophosphate, 5 mM EGTA, 1 mM DTT, 1 mM sodium vanadate, 15 mM MgCl2, and 100 μM ATP (containing a trace amount of ^32PγATP) in a total volume of 25 μL in a 96-well microtiter plate. The reaction was stopped by placing the plate on ice for 2 min. Avidin (50 μg) was added to each well, and the plate was incubated at room temp for 30 min. The samples were transferred to a 96-well P81 filter plate, and washed (4×200 μL per well) with 75 mM phosphoric acid. Microscint 40 scintillation liquid (50 μL) was added to each well, and the amount of ^32P incorporation for each sample was measured using a Packard Topcount microplate scintillation counter.

The target of a further data set is CDK2-cycline E (Homo sapiens, UniProt P24941). The data set can be described thus: Kinase assay (radioactive phosphate incorporation), CDK2-cyclin E. In kind it is biochemical. Particulars: read-out: Kinase Inhibition pIC50 CDK2-cycline E (converted). A digest of the protocol:
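Inhibition measured as 32P transfer from ATP (100 μM, 15 mM MgCl2) onto peptide substrates at 30° C. Each assay used 2-4 μg active recombinant enzyme in pH 7.4 buffer. Reactions stopped on ice, filtered, acid-washed and counted; compounds diluted into 10% DMSO in assay buffer.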

Another data set concerns the target CDK9/cyclin T1 (Homo sapiens, UniProt P50750). Kind of data set: CDK 9 assay (CTD peptide substrate). In kind it is biochemical. Particulars: read-out: Kinase Inhibition pIC50 CDK9-cyclin T1 (converted). A digest of the protocol: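 32P transfer from 100 μM ATP (trace [γ-32P]ATP) to a biotinyl CTD (YSPTSPS)4 peptide was measured after 45 min at 30 °C in pH 7.2 MOPS buffer, 15 mM MgCl2, using recombinant human CDK7/cyclin H or CDK9/cyclin T1. Signal read by filter binding and scintillation counting.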

Sequence of CDK9/cyclin T1 (P50750 whole entry): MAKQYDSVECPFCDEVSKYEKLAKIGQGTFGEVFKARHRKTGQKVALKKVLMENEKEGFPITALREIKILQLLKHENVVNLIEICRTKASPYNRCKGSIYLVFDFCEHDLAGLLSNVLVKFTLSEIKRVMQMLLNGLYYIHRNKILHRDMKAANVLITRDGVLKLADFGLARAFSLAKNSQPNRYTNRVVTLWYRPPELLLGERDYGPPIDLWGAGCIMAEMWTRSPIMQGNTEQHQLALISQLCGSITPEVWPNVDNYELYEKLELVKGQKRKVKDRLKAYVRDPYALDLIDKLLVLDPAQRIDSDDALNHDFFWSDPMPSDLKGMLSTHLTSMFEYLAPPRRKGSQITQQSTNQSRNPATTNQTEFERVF
Sequence of CDK9/cyclin T1 (O60563 whole entry partner): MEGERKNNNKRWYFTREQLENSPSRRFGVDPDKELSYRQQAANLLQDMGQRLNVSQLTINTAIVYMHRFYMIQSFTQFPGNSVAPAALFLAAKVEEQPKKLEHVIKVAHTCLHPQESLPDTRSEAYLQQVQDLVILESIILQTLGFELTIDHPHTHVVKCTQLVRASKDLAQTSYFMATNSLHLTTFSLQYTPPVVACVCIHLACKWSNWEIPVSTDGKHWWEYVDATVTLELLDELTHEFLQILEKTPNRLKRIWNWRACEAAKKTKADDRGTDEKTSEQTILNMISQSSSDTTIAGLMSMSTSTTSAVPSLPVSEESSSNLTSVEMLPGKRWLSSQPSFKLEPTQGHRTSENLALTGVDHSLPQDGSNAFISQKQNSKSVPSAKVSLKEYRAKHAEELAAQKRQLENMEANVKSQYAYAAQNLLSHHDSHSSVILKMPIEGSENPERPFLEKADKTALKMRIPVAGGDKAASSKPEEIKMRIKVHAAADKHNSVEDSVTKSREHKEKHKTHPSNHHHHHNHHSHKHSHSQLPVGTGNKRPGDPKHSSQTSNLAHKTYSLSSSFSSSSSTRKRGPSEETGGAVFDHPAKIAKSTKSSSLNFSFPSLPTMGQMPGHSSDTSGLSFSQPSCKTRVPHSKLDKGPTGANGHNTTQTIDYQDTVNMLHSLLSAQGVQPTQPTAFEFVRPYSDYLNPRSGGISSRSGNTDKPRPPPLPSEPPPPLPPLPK
Sequence of CDK7/cyclin H (P50613 whole entry): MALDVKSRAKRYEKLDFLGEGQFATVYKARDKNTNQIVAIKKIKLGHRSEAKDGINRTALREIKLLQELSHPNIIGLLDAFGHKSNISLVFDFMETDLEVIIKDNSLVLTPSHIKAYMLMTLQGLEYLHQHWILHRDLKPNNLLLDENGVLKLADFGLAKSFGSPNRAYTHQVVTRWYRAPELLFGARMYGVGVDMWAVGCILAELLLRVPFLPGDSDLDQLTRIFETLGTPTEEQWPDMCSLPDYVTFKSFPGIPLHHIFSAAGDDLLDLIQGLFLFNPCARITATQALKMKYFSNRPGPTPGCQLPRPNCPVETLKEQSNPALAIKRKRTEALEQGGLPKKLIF
Sequence of CDK7/cyclin H (P51946 whole entry partner): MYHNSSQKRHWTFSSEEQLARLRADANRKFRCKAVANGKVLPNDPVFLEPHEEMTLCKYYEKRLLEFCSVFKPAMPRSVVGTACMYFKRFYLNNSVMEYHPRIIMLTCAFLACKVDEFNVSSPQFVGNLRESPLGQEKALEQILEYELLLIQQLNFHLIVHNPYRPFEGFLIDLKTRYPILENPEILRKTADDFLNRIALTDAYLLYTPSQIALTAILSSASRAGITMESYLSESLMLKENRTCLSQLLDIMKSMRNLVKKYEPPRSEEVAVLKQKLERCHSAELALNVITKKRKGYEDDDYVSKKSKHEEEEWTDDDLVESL

For the compound `CC(=O)N1CCN(c2ccc(Nc3nccc(-c4sc(-c5cccs5)nc4C)n3)cc2)CC1` [Compound 131, 1-(4-{4-[4-(4-Methyl-2-thiophen-2-yl-thiazol-5-yl)-pyrimidin-2-ylamino]-phenyl}-piperazin-1-yl)-ethanone], the melting point (as a rule, the temperature, or range, at which the solid turns liquid) was 134 to 136 °C. The IC50 at Aurora A kinase was 251 nM. For the same compound, the IC50 at CDK7/cyclin H is 1580 nM. For the same compound, the IC50 at CDK2-cycline E is 2510 nM. Moreover, on CDK9/cyclin T1, the IC50 is 2.51 µM.
With `Cc1nc(NCCc2ccccc2)sc1-c1ccnc(Nc2ccc(N3CCOCC3)cc2)n1` [Compound 158, [4-(4-Methyl-2-phenethylamino-thiazol-5-yl)-pyrimidin-2-yl]-(4-morpholin-4-yl-phenyl)-amine], the melting point lay in the range of 226 to 228 °C. Moreover, on Aurora A kinase, the IC50 is 200 nM. In addition, the IC50 at CDK2-cycline E is 1000 nM.
For the compound `CC(=O)NCc1ccc(Nc2nccc(-c3sc(-c4cccnc4)nc3C)n2)cc1` [Compound 103, N-{4-[4-(4-Methyl-2-pyridin-3-yl-thiazol-5-yl)-pyrimidin-2-ylamino]-benzyl}-acetamide], the melting point is 199 to 201 °C. For the same compound, the IC50 at CDK7/cyclin H is 2510 nM. Also, at CDK2-cycline E, the IC50 was 2510 nM. Further, the IC50 at CDK9/cyclin T1 is 5.01 µM.
Turning to `Cc1nc(C)c(-c2ccnc(Nc3ccc(N4CCOCC4)c(C)c3)n2)s1` [Compound 220, [4-(2,4-Dimethyl-thiazol-5-yl)-pyrimidin-2-yl]-(3-methyl-4-morpholin-4-yl-phenyl)-amine], the melting point was in the range of 164 to 166 °C. Also, the IC50 on Aurora A kinase is 39.8 nM. For the same compound, at CDK2-cycline E, the IC50 is 1260 nM. Further, the IC50 on CDK9/cyclin T1 is 6.31 µM.
With `CCNc1nc(C)c(-c2ccnc(Nc3ccc(N4CCOCC4)c(OC)c3)n2)s1` [Compound 157, [4-(2-Ethylamino-4-methyl-thiazol-5-yl)-pyrimidin-2-yl]-(3-methoxy-4-morpholin-4-yl-phenyl)-amine], the melting point lay within 224 to 226 °C. Also, at Aurora A kinase, the IC50 was 25.1 nM. The IC50 at CDK2-cycline E is 251 nM.
The corresponding values for `Cc1nc(N)sc1-c1ccnc(Nc2ccc3c(c2)OCO3)n1` [Compound 179, [4-(2-Amino-4-methyl-thiazol-5-yl)-pyrimidin-2-yl]-benzo[1,3]dioxol-5-yl-amine] are 211 to 213 °C, 79.4 nM and 100 nM.
On to `Cc1nc(C)c(-c2ccnc(Nc3ccc(N4CCSCC4)cc3)n2)s1` [Compound 202, [4-(2,4-Dimethyl-thiazol-5-yl)-pyrimidin-2-yl]-(4-thiomorpholin-4-yl-phenyl)-amine], for which the melting point was in the range of 173 to 174 °C. On Aurora A kinase, the IC50 is 158 nM. Besides, the IC50 at CDK2-cycline E was 5010 nM.
`Cc1nc(N)sc1-c1ccnc(Nc2ccc(N3CCSCC3)cc2)n1` [Compound 201, [4-(2-Amino-4-methyl-thiazol-5-yl)-pyrimidin-2-yl]-(4-thiomorpholin-4-yl-phenyl)-amine]: the melting point is 180 to 182 °C. Moreover, on Aurora A kinase, the IC50 was 63.1 nM. In addition, the IC50 on CDK2-cycline E is 1580 nM. Moreover, at CDK9/cyclin T1, the IC50 was 1.58 µM.
Compound `Cc1nc(C)c(-c2ccnc(Nc3cccc(CN)c3)n2)s1` [Compound 90, (3-Aminomethyl-phenyl)-[4-(2,4-dimethyl-thiazol-5-yl)-pyrimidin-2-yl]-amine] yielded a melting point of 183 to 184 °C. Also, the IC50 on CDK2-cycline E is 398 nM.
Take `CCNc1nc(C)c(-c2ccnc(Nc3ccc4c(c3)OCO4)n2)s1` [Compound 178, Benzo[1,3]dioxol-5-yl-[4-(2-ethylamino-4-methyl-thiazol-5-yl)-pyrimidin-2-yl]-amine]: the melting point fell in the range of 194 to 195 °C. For the same compound, the IC50 on Aurora A kinase was 158 nM. The IC50 on CDK2-cycline E is 200 nM.
Consider `Cc1cc(Nc2nccc(-c3sc(N)nc3C)n2)ccc1N1CCCCC1` [Compound 206, [4-(2-Amino-4-methyl-thiazol-5-yl)-pyrimidin-2-yl]-(3-methyl-4-piperidin-1-yl-phenyl)-amine], for which the melting point fell in the range of 221 to 223 °C. For the same compound, the IC50 on Aurora A kinase was 158 nM. The IC50 on CDK2-cycline E was 1260 nM.
As to `CCNc1nc(C)c(-c2ccnc(Nc3ccc(N4CCSCC4)cc3)n2)s1` [Compound 203, [4-(2-Ethylamino-4-methyl-thiazol-5-yl)-pyrimidin-2-yl]-(4-thiomorpholin-4-yl-phenyl)-amine], the melting point lay within 207 to 209 °C. The IC50 on Aurora A kinase was 126 nM. The IC50 at CDK2-cycline E is 2000 nM. Moreover, the IC50 on CDK9/cyclin T1 was 3.16 µM.
As for `CC(=O)NCc1cccc(Nc2nccc(-c3sc(-c4cccs4)nc3C)n2)c1` [Compound 130, N-{3-[4-(4-Methyl-2-thiophen-2-yl-thiazol-5-yl)-pyrimidin-2-ylamino]-benzyl}-acetamide], the melting point was in the range of 223 to 225 °C. Moreover, the IC50 at Aurora A kinase was 158 nM. Besides, on CDK2-cycline E, the IC50 was 794 nM.
With `CCc1cc(-c2nc(C)c(-c3ccnc(Nc4ccc(CNC(C)=O)cc4)n3)s2)ccn1` [Compound 104, N-(4-{4-[2-(2-Ethyl-pyridin-4-yl)-4-methyl-thiazol-5-yl]-pyrimidin-2-ylamino}-benzyl)-acetamide], the melting point fell in the range of 224 to 225 °C. Moreover, on Aurora A kinase, the IC50 was 63.1 nM.
As to `Cc1nc(N(C)c2cc(Cl)cc(Cl)c2)sc1-c1ccnc(Nc2ccc(N3CCOCC3)cc2)n1` [Compound 123, (4-{2-[(3,5-Dichloro-phenyl)-methyl-amino]-4-methyl-thiazol-5-yl}-pyrimidin-2-yl)-(4-morpholin-4-yl-phenyl)-amine], the melting point is 216 to 218 °C. Moreover, the IC50 at Aurora A kinase was 50.1 nM.
Consider `Cc1cc(Nc2nccc(-c3sc(N)nc3C)n2)ccc1N1CCOCC1` [Compound 218, [4-(2-Amino-4-methyl-thiazol-5-yl)-pyrimidin-2-yl]-(3-methyl-4-morpholin-4-yl-phenyl)-amine], for which the melting point is 256 to 257 °C. Besides, on Aurora A kinase, the IC50 is 63.1 nM. Moreover, the IC50 at CDK2-cycline E was 1260 nM. Further, the IC50 on CDK9/cyclin T1 was 1.58 µM.
The compound `CCc1cc(-c2nc(C)c(-c3ccnc(Nc4ccc(S(=O)(=O)NCCO)cc4)n3)s2)ccn1` [Compound 102, 4-{4-[2-(2-Ethyl-pyridin-4-yl)-4-methyl-thiazol-5-yl]-pyrimidin-2-ylamino}-N-(2-hydroxy-ethyl)-benzenesulfonamide] came in with a melting point of 233 to 234 °C. For the same compound, on Aurora A kinase, the IC50 was 63.1 nM.
With `CCNc1nc(C)c(-c2ccnc(Nc3ccc(N4CCOCC4)c(C)c3)n2)s1` [Compound 219, [4-(2-Ethylamino-4-methyl-thiazol-5-yl)-pyrimidin-2-yl]-(3-methyl-4-morpholin-4-yl-phenyl)-amine], the melting point lay in the range of 213 to 214 °C. Also, the IC50 at Aurora A kinase is 63.1 nM. The IC50 on CDK2-cycline E is 1000 nM. Besides, on CDK9/cyclin T1, the IC50 is 3.16 µM.
